# US12435060B2, “Acylamino bridged heterocyclic compound, and composition and application thereof” (BEIJING SCITECH-MQ PHARMACEUTICALS LIMITED, priority 2019, dated 2025)
# System: HT29 cells
# Assay: Inhibition of cell necrosis (CCK8 method), induced programmed necrosis of HT29 cells
# Assay type: cell-based
# Conditions: Homo sapiens, HT-29; rescue from necrosis induced by TNF-α 20 ng/mL, AT-406 1 μM, Z-VAD-FMK 20 μM; 16-20 hours; CCK-8, OD 450 nm
# How it was run: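 Rescue from programmed necrosis was scored by CCK-8 absorbance at 450 nm after 16-20 h of TNF-α (20 ng/mL), AT-406 (1 μM) and Z-VAD-FMK (20 μM) at 37 °C, 5% CO2. HT29 cells had received compound 30 min earlier across nine 4-fold dilutions (top 25000 nM final). IC50 came from % inhibition relative to uninduced and induced-only wells.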
row,Structure (SMILES),IC50 [nM]
1,"O=C(Nc1cc(-c2cc(OCC3CCOCC3)ccc2C(F)(F)F)ccn1)c1nnc(Cc2ccccc2)[nH]1 [Example 299, 5-benzyl-N-(4-(5-((tetrahydro-2H-pyran-4-yl)methoxy)-2-(trifluoromethyl)phenyl)pyridin-2-yl)-4H-1,2,4-triazole-3-carboxamide]",≤ 100
2,"CCC(O)(CC)CCCOc1ccc(C(F)(F)F)c(-c2ccnc(NC(=O)c3nnc(Cc4ccccc4)[nH]3)c2)c1 [Example 260, 5-benzyl-N-(4-(5-((4-ethyl-4-hydroxyhexyl)oxy)-2-(trifluoromethyl)phenyl)pyridin-2-yl)-4H-1,2,4-triazole-3-carboxamide]",≤ 100
3,"Cc1ccc(OCCCS(C)(=O)=O)cc1-c1ccnc(NC(=O)c2nnc(Cc3ccccc3)[nH]2)c1 [Example 73, 5-benzyl-N-(4-(2-methyl-5-(3-(methylsulfonyl)propoxy)phenyl)pyridin-2-yl)-4H-1,2,4-triazole-3-carboxamide]",≤ 100
4,"Cc1ccc(OCCCC(C)(C)O)cc1-c1ccnc(NC(=O)c2nnc(Cc3cc(F)c(F)c(F)c3)[nH]2)c1 [Example 217, 5-(3,4,5-trifluorobenzyl)-N-(4-(5-((4-hydroxy-4-methylpentyl)oxy)-2-methylphenyl)pyridin-2-yl)-4H-1,2,4-triazole-3-carboxamide]",100 to 1000
5,"Cc1ccc(OCCOC(C)C)cc1-c1ccnc(NC(=O)c2nnc(Cc3ccccc3)[nH]2)c1 [Example 133, 5-benzyl-N-(4-(5-(2-isopropoxyethoxy)-2-methylphenyl)pyridin-2-yl)-4H-1,2,4-triazole-3-carboxamide]",≤ 100
6,"O=C(Nc1cc(-c2cc(OCCCCCO)ccc2C(F)(F)F)ccn1)c1nnc(Cc2ccccc2F)[nH]1 [Example 276, 5-(2-fluorobenzyl)-N-(4-(5-((5-hydroxypentyl)oxy)-2-(trifluoromethyl)phenyl)pyridin-2-yl)-4H-1,2,4-triazole-3-carboxamide]",≤ 100
7,Cc1ccc(OCCCN2CCCCC2=O)cc1-c1ccnc(NC(=O)c2nnc(Cc3ccccc3)[nH]2)c1 [Example 84],≤ 100
8,"Cc1ccc(OCCCC(C)(C)O)cc1-c1ccnc(NC(=O)c2nnc(Cc3ccc(F)c(F)c3)[nH]2)c1 [Example 192, 5-(3,4-difluorobenzyl)-N-(4-(5-((4-hydroxy-4-methylpentyl)oxy)-2-methylphenyl)pyridin-2-yl)-4H-1,2,4-triazole-3-carboxamide]",≤ 100
9,"O=C(Nc1cc(-c2cccc3c2CCCC3)ccn1)c1nnc(Cc2ccccc2)[nH]1 [Example 43, 5-benzyl-N-(4-(5,6,7,8-tetrahydronaphthalen-1-yl)pyridin-2-yl)-4H-1,2,4-triazole-3-carboxamide]",1000 to 10000
10,"Cc1ccc(OCCCC(C)(C)O)cc1-c1ccnc(NC(=O)c2nnc(CN3CCOCC3)[nH]2)c1 [Example 181, N-(4-(5-((4-hydroxy-4-methylpentyl)oxy)-2-methylphenyl)pyridin-2-yl)-5-(morpholinomethyl)-4H-1,2,4-triazole-3-carboxamide]",1000 to 10000
11,"CC(C)(O)CCCOc1ccc(Cl)c(-c2cc(NC(=O)c3nnc(Cc4ccccc4F)[nH]3)ncc2Cl)c1 [Example 411, N-(5-chloro-4-(2-chloro-5-((4-hydroxy-4-methylpentyl)oxy)phenyl)pyridin-2-yl)-5-(2-fluorobenzyl)-4H-1,2,4-triazole-3-carboxamide]",100 to 1000
12,"CC(C)(O)CCCOc1ccc(C(F)(F)F)c(-c2cc(NC(=O)c3nnc(CC4CCCCC4)[nH]3)ncn2)c1 [Example 453, 5-(cyclohexylmethyl)-N-(6-(5-((4-hydroxy-4-methylpentyl)oxy)-2-(trifluoromethyl)phenyl)pyrimidin-4-yl)-4H-1,2,4-triazole-3-carboxamide]",≤ 100
13,"Cc1ccc(OCCOC(C)(C)C)cc1-c1ccnc(NC(=O)c2nnc(Cc3ccccc3)[nH]2)c1 [Example 64, 5-benzyl-N-(4-(5-(2-(tert-butoxy)ethoxy)-2-methylphenyl)pyridin-2-yl)-4H-1,2,4-triazole-3-carboxamide]",≤ 100
14,"Cc1ccc(C(N)=O)cc1-c1ccnc(NC(=O)c2nnc(Cc3ccccc3)[nH]2)c1 [Example 158, 5-benzyl-N-(4-(5-carbamoyl-2-methylphenyl)pyridin-2-yl)-4H-1,2,4-triazole-3-carboxamide]",1000 to 10000
15,"CC(C)(C)OCCOc1ccc(C(F)(F)F)c(-c2ccnc(NC(=O)c3nnc(CC4CCCC4)[nH]3)c2)c1 [Example 293, 5-(cyclopentylmethyl)-N-(4-(5-(2-(tert-butoxy)ethoxy)-2-(trifluoromethyl)phenyl)pyridin-2-yl)-4H-1,2,4-triazole-3-carboxamide]",≤ 100
16,"O=C(Nc1cc(-c2cc(OCC3CCOCC3)ccc2Cl)ncn1)c1nnc(CC2CCCC2)[nH]1 [Example 468, 5-(cyclopentylmethyl)-N-(6-(2-chloro-5-((tetrahydro-2H-pyran-4-yl)methoxy)phenyl)pyrimidin-4-yl)-4H-1,2,4-triazole-3-carboxamide]",≤ 100

row,Structure (SMILES),IC50 [nM]
1,"Cc1ccc(OCCCOC2CCC2)cc1-c1ccnc(NC(=O)c2nnc(Cc3ccccc3)[nH]2)c1 [Example 81, 5-benzyl-N-(4-(5-(3-cyclobutoxypropoxy)-2-methylphenyl)pyridin-2-yl)-4H-1,2,4-triazole-3-carboxamide]",≤ 100
2,"Cc1ccc(OCCOC(C)(C)C)cc1-c1ccnc(NC(=O)c2nnc(CC3CCCC3)[nH]2)c1 [Example 75, N-(4-(5-(2-(tert-butoxy)ethoxy)-2-methylphenyl)pyridin-2-yl)-5-(cyclopentylmethyl)-4H-1,2,4-triazole-3-carboxamide]",≤ 100
3,"CC(C)(O)CCCCOc1ccc(F)c(-c2cc(NC(=O)c3nnc(CC4CCCCC4)[nH]3)ncc2Cl)c1 [Example 326, 5-(cyclohexylmethyl)-N-(5-chloro-4-(2-fluoro-5-((5-hydroxyl-5-methylhexyl)oxy)phenyl)pyridin-2-yl)-4H-1,2,4-triazole-3-carboxamide]",100 to 1000
4,"CC(C)(O)CCCOc1ccc(Cl)c(-c2ccnc(NC(=O)c3nnc([C@@H](O)c4ccccc4)[nH]3)c2)c1 [Example 478, (S)-N-(4-(2-chloro-5-((4-hydroxy-4-methylpentyl)oxy)phenyl)pyridin-2-yl)-5-(hydroxyl(phenyl)methyl)-4H-1,2,4-triazole-3-carboxamide]",100 to 1000
5,"COCCCOc1ccc(C)c(-c2ccnc(NC(=O)c3nnc(CC4CCCC4)[nH]3)c2)c1 [Example 144, 5-(cyclopentylmethyl)-N-(4-(5-(3-methoxypropoxy)-2-methylphenyl)pyridin-2-yl)-4H-1,2,4-triazole-3-carboxamide]",≤ 100
6,"Cc1ccc(OCCCN(C)C)cc1-c1ccnc(NC(=O)c2nnc(Cc3ccccc3)[nH]2)c1 [Example 139, 5-benzyl-N-(4-(5-(3-(dimethylamino)propoxy)-2-methylphenyl)pyridin-2-yl)-4H-1,2,4-triazole-3-carboxamide]",> 10000
7,"Cc1ccc(OCCCC(C)(C)O)cc1-c1ccnc(NC(=O)c2nnc(CC(C)C)[nH]2)c1 [Example 169, N-(4-(5-((4-hydroxy-4-methylpentyl)oxy)-2-methylphenyl)pyridin-2-yl)-5-isobutyl-4H-1,2,4-triazole-3-carboxamide]",≤ 100
8,"Cc1ccc(OCCN2CCCCC2)cc1-c1cc(NC(=O)c2nnc(Cc3ccccc3F)[nH]2)ncn1 [Example 449, 5-(2-fluorobenzyl)-N-(6-(2-methyl-5-(2-(piperidin-1-yl)ethoxy)phenyl)pyrimidin-4-yl)-4H-1,2,4-triazole-3-carboxamide]",100 to 1000
9,"Cc1ccc(OCCCC(C)(C)O)cc1-c1ccnc(NC(=O)c2nnc(CC34CC5CC(CC(C5)C3)C4)[nH]2)c1 [Example 180, 5-(adamantan-1-ylmethyl)-N-(4-(5-((4-hydroxy-4-methylpentyl)oxy)-2-methylphenyl)pyridin-2-yl)-4H-1,2,4-triazole-3-carboxamide]",≤ 100
10,"O=C(Nc1cc(-c2cc(OCCC3CCOCC3)ccc2C(F)(F)F)ccn1)c1nnc(Cc2ccccc2)[nH]1 [Example 305, 5-benzyl-N-(4-(5-(2-(tetrahydro-2H-pyran-4-yl)ethoxy)-2-(trifluoromethyl)phenyl)pyridin-2-yl)-4H-1,2,4-triazole-3-carboxamide]",≤ 100
11,"COCCCOc1ccc(C)c(-c2ccnc(NC(=O)c3nnc(C(C)c4ccccc4)[nH]3)c2)c1 (stereo not shown) [Example 142, N-(4-(5-(3-methoxypropoxy)-2-methylphenyl)pyridin-2-yl)-5-(1-phenylethyl)-4H-1,2,4-triazole-3-carboxamide]",100 to 1000
12,"CCC(O)(CC)CCCOc1ccc(C(F)(F)F)c(-c2ccnc(NC(=O)c3nnc(CC4CCCC4)[nH]3)c2)c1 [Example 262, 5-(cyclopentylmethyl)-N-(4-(5-((4-ethyl-4-hydroxyhexyl)oxy)-2-(trifluoromethyl)phenyl)pyridin-2-yl)-4H-1,2,4-triazole-3-carboxamide]",≤ 100
13,"Cc1ccc(OCCCC(C)(C)O)cc1-c1cc(NC(=O)c2nnc(Cc3ccc(F)cc3F)[nH]2)ncn1 [Example 435, 5-(2,4-difluorobenzyl)-N-(6-(5-((4-hydroxy-4-methylpentyl)oxy)-2-methylphenyl)pyrimidin-4-yl)-4H-1,2,4-triazole-3-carboxamide]",≤ 100
14,"Cn1nccc1-c1ccnc(NC(=O)c2nnc(Cc3ccccc3)[nH]2)c1 [Example 26, 5-benzyl-N-(4-(1-methyl-1H-pyrazol-5-yl)pyridin-2-yl)-4H-1,2,4-triazole-3-carboxamide]",100 to 1000
15,"CCC(O)(CC)CCCOc1ccc(C)c(-c2cc(NC(=O)c3nnc(Cc4ccccc4F)[nH]3)ncc2Cl)c1 [Example 244, N-(5-chloro-4-(5-((4-ethyl-4-hydroxyhexyl)oxy)-2-methylphenyl)pyridin-2-yl)-5-(2-fluorobenzyl)-4H-1,2,4-triazole-3-carboxamide]",≤ 100
